Like-named read-outs stand apart in the source and are kept apart here.
What was measured:
[1] = system: A375-GP cells (Dabrafenib-resistant); test: Dose-response curves and IC50, PrestoBlue cell viability, 72 h; assay type: cell-based, human; conditions: n.e. = did not suppress growth below 50% in the tested concentration range, read-out: Half-maximal inhibitory concentration value (IC50), Mean
A375 cells = test: Synergy determination with the Chou-Talalay method (CompuSyn), cell viability 72 h; assay type: cell-based, human; conditions: 72 h cell viability, Chou-Talalay / Synergyfinder
Protocol: The Chou-Talalay method to determine possible synergistic effects of selected kinase inhibitor combinations was used as described in [19]. […] Cells were treated with either single inhibitors or combinations thereof at indicated amounts in technical triplicates. The amounts were pre-determined from each inhibitor’s IC50 value and inhibitors were assayed in a defined dilution series and at constant ratio when combined. […] Combination Index (CI) values showing either synergy (< 1) or antagonism (> 1) were calculated with the CompuSyn software (ComboSyn, Inc).

[2] = system: A375-XP cells (Vemurafenib-resistant); test: Kinase inhibitor library screening, PrestoBlue cell viability, 1 or 10 μM, 72 h; conditions: for cell viability (kinase inhibitor library screening): A375 XP, 72 h
[3] = system: A375-GP cells (Dabrafenib-resistant); test: as above; conditions: for cell viability (kinase inhibitor library screening): A375 GP, 72 h
[4] = system: 501Mel-GP cells (Dabrafenib-resistant); test: as above; conditions: 72 h; for cell viability (kinase inhibitor library screening): 501Mel GP
501Mel cells (parental) = test: as above; conditions: 72 h; for cell viability (kinase inhibitor library screening): 501Mel Parental
Summary of the method: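 Parental cells and Vemurafenib-resistant (XP) or Dabrafenib-resistant (GP) derivatives were treated with library kinase inhibitors at 1 and 10 μM for 72 h. Viability measured by PrestoBlue and expressed as % of untreated cells, at least in duplicate.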

[5] = system: 501Mel-XP cells (Vemurafenib-resistant); test: as above; conditions: 72 h; for cell viability (kinase inhibitor library screening): 501Mel XP
IGR37 cells (parental) = test: as above; conditions: for cell viability (kinase inhibitor library screening): IGR37 Parental, 72 h
[6] = system: IGR37-GP cells (Dabrafenib-resistant); test: as above; conditions: for cell viability (kinase inhibitor library screening): IGR37 GP, 72 h
A375 cells (parental) [7] = test: as above; conditions: for cell viability (kinase inhibitor library screening): A375 Parental, 72 h
[8] = system: IGR37-XP cells (Vemurafenib-resistant); test: as above; conditions: for cell viability (kinase inhibitor library screening): IGR37 XP, 72 h
A375 cells (parental) [9] = test: Dose-response curves and IC50, PrestoBlue cell viability, 72 h; assay type: cell-based, human; conditions: read-out: Half-maximal inhibitory concentration value (IC50), Mean
[10] = system: A375-XP cells (Vemurafenib-resistant); test: as above; assay type: cell-based, human; conditions: n.e. = did not suppress growth below 50% in the tested concentration range, read-out: Half-maximal inhibitory concentration value (IC50), Mean
[11] = Homo sapiens, A-375, n.e. = did not suppress growth below 50% in the tested concentration range

`O=C(NC1CCNCC1)c1[nH]ncc1NC(=O)c1c(Cl)cccc1Cl` [AT7519, reference compound] was tested, and the IC50 ([1]; Homo sapiens) was 645 nM, the “synergistic effects with the BRAF inhibitors Vemurafenib and/or Dabrafenib (in words)” value (A375 cells) was “did not act synergistically” and the “cell viability (kinase inhibitor library screening)” value ([2]; 1μΜ) was 37.2%. The “cell viability (kinase inhibitor library screening)” value ([2]; 10μΜ) was 7.6%, the “cell viability (kinase inhibitor library screening)” value ([3]; 1μΜ) was 17.7% and the “cell viability (kinase inhibitor library screening)” value ([3]; 10μΜ) was 4.8%. For the same compound, the “cell viability (kinase inhibitor library screening)” value ([4]; 1μΜ) was 96.2%, the “cell viability (kinase inhibitor library screening)” value ([4]; 10μΜ) was 0.428% and the “cell viability (kinase inhibitor library screening)” value (501Mel cells (parental); 1μΜ) was 82.3%. The “cell viability (kinase inhibitor library screening)” value (501Mel cells (parental); 10μΜ) was 1.4%, the “cell viability (kinase inhibitor library screening)” value ([5]; 1μΜ) was 73.2% and the “cell viability (kinase inhibitor library screening)” value ([5]; 10μΜ) was 0.0524%. The “cell viability (kinase inhibitor library screening)” value (IGR37 cells (parental); 1μΜ) was 79.7%, the “cell viability (kinase inhibitor library screening)” value (IGR37 cells (parental); 10μΜ) was 2.2% and the “cell viability (kinase inhibitor library screening)” value ([6]; 1μΜ) was 35.9%. For the same compound, the “cell viability (kinase inhibitor library screening)” value ([6]; 10μΜ) was 3.9%, the “cell viability (kinase inhibitor library screening)” value (A375 cells (parental) [7]; 10μΜ) was 8.2% and the “cell viability (kinase inhibitor library screening)” value (A375 cells (parental) [7]; 1μΜ) was 30.7%. The “cell viability (kinase inhibitor library screening)” value ([8]; 1μΜ) was 10.8%, the “cell viability (kinase inhibitor library screening)” value ([8]; 10μΜ) was 2.4% and the IC50 (A375 cells (parental) [9]; [11]) was 544 nM. It also gave an IC50 ([10]; Homo sapiens) of 631 nM.

In the case of `Cc1cc(C(=O)NOCCO)c(Nc2ccc(I)cc2F)n(C)c1=O` [AZD8330, reference compound], the IC50 ([1]; Homo sapiens) is reported as 3.2 nM, the “synergistic effects with the BRAF inhibitors Vemurafenib and/or Dabrafenib (in words)” value (A375 cells) is reported as “synergistic effects at low concentrations” and the viability at 1 µM ([2]; Homo sapiens, A-375, 72 h, read-out: cell viability, A375 XP, 1μΜ) is reported as 10.5%. The viability at 10 µM ([2]; Homo sapiens, A-375, 72 h, read-out: cell viability, A375 XP, 10μΜ) was 12.1%, the viability at 1 µM ([3]; Homo sapiens, A-375, 72 h, read-out: cell viability, A375 GP, 1μΜ) was 17.9% and the viability at 10 µM ([3]; Homo sapiens, A-375, 72 h, read-out: cell viability, A375 GP, 10μΜ) was 13.3%. The viability at 1 µM ([4]; Homo sapiens, read-out: cell viability, 501Mel GP, 1μΜ) was 86.3%, the viability at 10 µM ([4]; Homo sapiens, read-out: cell viability, 501Mel GP, 10μΜ) was 74.6% and the viability at 1 µM (501Mel cells (parental); Homo sapiens, read-out: cell viability, 501Mel Parental, 1μΜ) was 48.9%. For the same compound, the viability at 10 µM (501Mel cells (parental); Homo sapiens, read-out: cell viability, 501Mel Parental, 10μΜ) was 52.5%, the viability at 1 µM ([5]; Homo sapiens, read-out: cell viability, 501Mel XP, 1μΜ) was 69.7% and the viability at 10 µM ([5]; Homo sapiens, read-out: cell viability, 501Mel XP, 10μΜ) was 56.7%. The viability at 1 µM (IGR37 cells (parental); Homo sapiens, IGR-37, 72 h, read-out: cell viability, IGR37 Parental, 1μΜ) was 33%, the viability at 10 µM (IGR37 cells (parental); Homo sapiens, IGR-37, 72 h, read-out: cell viability, IGR37 Parental, 10μΜ) was 34% and the viability at 1 µM ([6]; Homo sapiens, IGR-37, 72 h, read-out: cell viability, IGR37 GP, 1μΜ) was 57.5%. The viability at 10 µM ([6]; Homo sapiens, IGR-37, 72 h, read-out: cell viability, IGR37 GP, 10μΜ) was 52%, the viability at 1 µM (A375 cells (parental) [7]; Homo sapiens, A-375, 72 h, read-out: cell viability, A375 Parental, 1μΜ) was 17.3% and the viability at 10 µM (A375 cells (parental) [7]; Homo sapiens, A-375, 72 h, read-out: cell viability, A375 Parental, 10μΜ) was 17.7%. For the same compound, the viability at 1 µM ([8]; Homo sapiens, IGR-37, 72 h, read-out: cell viability, IGR37 XP, 1μΜ) was 45.7%, the viability at 10 µM ([8]; Homo sapiens, IGR-37, 72 h, read-out: cell viability, IGR37 XP, 10μΜ) was 19% and the IC50 (A375 cells (parental) [9]; [11]) was 1.8 nM.

In the case of `CN1CC[C@H](c2c(O)cc(O)c3c(=O)cc(-c4ccccc4Cl)oc23)[C@H](O)C1.Cl` [Flavopiridol HCL], the IC50 [1] is reported as 123 nM, the “synergistic effects with the BRAF inhibitors Vemurafenib and/or Dabrafenib (in words)” value (A375 cells) is reported as “did not act synergistically” and the IC50 (A375 cells (parental) [9]; n.e. = did not suppress growth below 50% in the tested concentration range) is reported as 112 nM. The IC50 [10] was 136 nM.
